Experimental data as given in patent US20080166694A1, “Plant tissue packaging process” (priority 2007, published 2008).

Experiments:
bananas = assay: Addition of ozone to controlled-atmosphere and regular-atmosphere containers of bananas; conditions: ozone added
Protocol: In another embodiment, a controlled-atmosphere shipping container is filled with bananas packaged in perforated bags, and ozone is added to the controlled atmosphere. If a non-ozonated controlled-atmosphere container is well sealed, ethylene will accumulate, offsetting the benefit of slowed respiration afforded by the controlled atmosphere.

Cavendish bananas = assay: Storage of harvested Cavendish bananas in banavac polyethylene bags in containers with or without ozone; conditions: Container 7: 200 to 300 parts per billion ozone in surrounding atmosphere; polyethylene bags tied closed; regular atmosphere (20.8 percent oxygen); 56 days of storage; versus Container 8 without ozone
Description: Experimental conditions included loading harvested Cavendish bananas in polyethylene bags (known as “banavac” bags) into two containers, both having a regular atmosphere (containing 20.8 percent oxygen), with vents partially opened for the first four weeks and completely closed for the last four weeks of the experimental period. The experimental difference between the containers was the maintenance of 200 to 300 parts per billion of ozone in Container 7, and the absence of ozone from Container 8.
Container 8 in the experiment detailed in FIG. 3 was loaded with bananas in modified atmosphere packaging (here, polyethylene bags tied closed with a knot). The bananas were stored in the container without added ozone. At 56 days after harvest, all of the bananas were spoiled to the point of liquefaction.
Container 7 in the experiment detailed in FIG. 3 was loaded with bananas in modified atmosphere packaging (here also, polyethylene bags tied closed with a knot). According to an embodiment of the present invention, the bags of bananas in Container 7 were exposed to a surrounding atmosphere containing an ozone level of 200 to 300 parts per billion.

SMILES: O=[O+][O-] [ozone]
- climacteric ripening of bananas (bananas): delay climacteric ripening of bananas
- overall ethylene levels in containers (bananas): reduce overall ethylene levels
- condition of the bananas after storage (Cavendish bananas): markedly superior condition compared to that of the control bananas
